Results taken from ChEMBL document CHEMBL5584255, “Synthesis and antibacterial medicinal evaluation of carbothioamido hydrazonyl thiazolylquinolone with multitargeting antimicrobial potential to combat increasingly global resistance” (Eur J Med Chem, 2024).
≈ marks a conversion by molar mass, not a printed value.

Tests used:
Format in all cases: functional
Staphylococcus aureus [1] = test: Antibacterial activity against Staphylococcus aureus ATCC 25923 by microbroth dilution method
Staphylococcus aureus [2] = test: Antibacterial activity against Staphylococcus aureus ATCC 29213 by microbroth dilution method
Staphylococcus aureus [3] = test: Antibacterial activity against drug-resistant Staphylococcus aureus by microbroth dilution method
Staphylococcus aureus [4] = test: Antibacterial activity against methicillin-resistant Staphylococcus aureus N315 by microbroth dilution method
Enterococcus faecalis = test: Antibacterial activity against drug-resistant Enterococcus faecalis by microbroth dilution method
Candida albicans [5] = test: Antifungal activity against Candida albicans ATCC 90023
Candida albicans [6] = test: Antifungal activity against drug-resistant Candida albicans
Candida parapsilosis = test: Antifungal activity against Candida parapsilosis ATCC 22019; settings: Lodderomyces parapsilosis
Candida tropicalis = test: Antifungal activity against drug-resistant Candida tropicalis
Aspergillus fumigatus = test: Antifungal activity against Aspergillus fumigatus
Escherichia coli [7] = test: Antibacterial activity against Escherichia coli ATCC 25922 by microbroth dilution method
Pseudomonas aeruginosa [8] = test: Antibacterial activity against Pseudomonas aeruginosa ATCC 27853 by microbroth dilution method
Escherichia coli [9] = test: Antibacterial activity against drug-resistant Escherichia coli by microbroth dilution method
Pseudomonas aeruginosa [10] = test: Antibacterial activity against Pseudomonas aeruginosa by microbroth dilution method
Klebsiella pneumoniae = test: Antibacterial activity against Klebsiella pneumoniae by microbroth dilution method
Acinetobacter baumannii = test: Antibacterial activity against Acinetobacter baumannii by microbroth dilution method

SMILES | MIC (Staphylococcus aureus [1]) [µM] | MIC (Staphylococcus aureus [2]) [µM] | MIC (Staphylococcus aureus [3]) [µM] | MIC (Staphylococcus aureus [4]) [µM] | MIC (Enterococcus faecalis) [µM] | MIC (Candida albicans [5]) [µM] | MIC (Candida albicans [6]) [µM] | MIC (Candida parapsilosis) [µM] | MIC (Candida tropicalis) [µM] | MIC (Aspergillus fumigatus) [µM] | MIC (Escherichia coli [7]) [µM] | MIC (Pseudomonas aeruginosa [8]) [µM] | MIC (Escherichia coli [9]) [µM] | MIC (Pseudomonas aeruginosa [10]) [µM] | MIC (Klebsiella pneumoniae) [µM] | MIC (Acinetobacter baumannii) [µM]
C/C(Cn1cc(-c2csc(N)n2)c(=O)c2cc(F)c(Cl)cc21)=N\O | 44 (≈ 16.1 µg/mL) | 44 (≈ 16.1 µg/mL) | 44 (≈ 16.1 µg/mL) | 350 (≈ 128 µg/mL) | 350 (≈ 128 µg/mL) | 44 (≈ 16.1 µg/mL) | 87 (≈ 31.9 µg/mL) | 44 (≈ 16.1 µg/mL) | 699 (≈ 256 µg/mL) | 699 (≈ 256 µg/mL) | 22 (≈ 8.07 µg/mL) | 44 (≈ 16.1 µg/mL) | 350 (≈ 128 µg/mL) | 87 (≈ 31.9 µg/mL) | 699 (≈ 256 µg/mL) | 350 (≈ 128 µg/mL)
CC(=O)Cn1cc(-c2csc(C)n2)c(=O)c2cc(F)cc(F)c21 | 1530 (≈ 513 µg/mL) | 1530 (≈ 513 µg/mL) | 1530 (≈ 513 µg/mL) | 1530 (≈ 513 µg/mL) | 1530 (≈ 513 µg/mL) | 766 (≈ 256 µg/mL) | 1530 (≈ 513 µg/mL) | 1530 (≈ 513 µg/mL) | 1530 (≈ 513 µg/mL) | 383 (≈ 128 µg/mL) | 1530 (≈ 513 µg/mL) | 1530 (≈ 513 µg/mL) | 1530 (≈ 513 µg/mL) | 1530 (≈ 513 µg/mL) | 383 (≈ 128 µg/mL) | 766 (≈ 256 µg/mL)
Cc1nc(-c2c[nH]c3c(F)cccc3c2=O)cs1 | 985 (≈ 256 µg/mL) | 1970 (≈ 513 µg/mL) | 1970 (≈ 513 µg/mL) | 1970 (≈ 513 µg/mL) | 985 (≈ 256 µg/mL) | 985 (≈ 256 µg/mL) | 985 (≈ 256 µg/mL) | 492 (≈ 128 µg/mL) | 492 (≈ 128 µg/mL) | 492 (≈ 128 µg/mL) | 985 (≈ 256 µg/mL) | 492 (≈ 128 µg/mL) | 1970 (≈ 513 µg/mL) | 985 (≈ 256 µg/mL) | 985 (≈ 256 µg/mL) | 492 (≈ 128 µg/mL)
C/C(Cn1cc(-c2csc(N)n2)c(=O)c2cc(F)c(F)cc21)=N\NC(N)=S | 78 (≈ 31.9 µg/mL) | 39 (≈ 15.9 µg/mL) | 78 (≈ 31.9 µg/mL) | 78 (≈ 31.9 µg/mL) | 627 (≈ 256 µg/mL) | 314 (≈ 128 µg/mL) | 1260 (≈ 513 µg/mL) | 1260 (≈ 513 µg/mL) | 1260 (≈ 513 µg/mL) | 314 (≈ 128 µg/mL) | 314 (≈ 128 µg/mL) | 314 (≈ 128 µg/mL) | 627 (≈ 256 µg/mL) | 314 (≈ 128 µg/mL) | 627 (≈ 256 µg/mL) | 314 (≈ 128 µg/mL)
Nc1nc(-c2c[nH]c3c(F)cc(F)cc3c2=O)cs1 | 459 (≈ 128 µg/mL) | 918 (≈ 256 µg/mL) | 918 (≈ 256 µg/mL) | 459 (≈ 128 µg/mL) | 229 (≈ 64 µg/mL) | 115 (≈ 32.1 µg/mL) | 115 (≈ 32.1 µg/mL) | 459 (≈ 128 µg/mL) | 229 (≈ 64 µg/mL) | 459 (≈ 128 µg/mL) | 459 (≈ 128 µg/mL) | 229 (≈ 64 µg/mL) | 459 (≈ 128 µg/mL) | 459 (≈ 128 µg/mL) | 459 (≈ 128 µg/mL) | 459 (≈ 128 µg/mL)
C/C(Cn1cc(-c2csc(N)n2)c(=O)c2cc(F)cc(F)c21)=N\NC(N)=S | 157 (≈ 64.1 µg/mL) | 78 (≈ 31.9 µg/mL) | 78 (≈ 31.9 µg/mL) | 314 (≈ 128 µg/mL) | 1260 (≈ 513 µg/mL) | 627 (≈ 256 µg/mL) | 627 (≈ 256 µg/mL) | 314 (≈ 128 µg/mL) | 627 (≈ 256 µg/mL) | 1260 (≈ 513 µg/mL) | 1260 (≈ 513 µg/mL) | 627 (≈ 256 µg/mL) | 1260 (≈ 513 µg/mL) | 627 (≈ 256 µg/mL) | 627 (≈ 256 µg/mL) | 627 (≈ 256 µg/mL)
CCOC(=O)c1cn(C/C(C)=N/NC(N)=S)c2cc(Cl)c(F)cc2c1=O | 643 (≈ 256 µg/mL) | 643 (≈ 256 µg/mL) | 643 (≈ 256 µg/mL) | 643 (≈ 256 µg/mL) | 643 (≈ 256 µg/mL) | 643 (≈ 256 µg/mL) | 1290 (≈ 513 µg/mL) | 161 (≈ 64.2 µg/mL) | 643 (≈ 256 µg/mL) | 322 (≈ 128 µg/mL) | 1290 (≈ 513 µg/mL) | 322 (≈ 128 µg/mL) | 1290 (≈ 513 µg/mL) | 322 (≈ 128 µg/mL) | 643 (≈ 256 µg/mL) | 643 (≈ 256 µg/mL)
C/C(Cn1cc(-c2csc(C)n2)c(=O)c2cccc(F)c21)=N\NC(N)=S | 658 (≈ 256 µg/mL) | 329 (≈ 128 µg/mL) | 1320 (≈ 513 µg/mL) | 1320 (≈ 513 µg/mL) | 658 (≈ 256 µg/mL) | 1320 (≈ 513 µg/mL) | 1320 (≈ 513 µg/mL) | 658 (≈ 256 µg/mL) | 329 (≈ 128 µg/mL) | 658 (≈ 256 µg/mL) | 329 (≈ 128 µg/mL) | 329 (≈ 128 µg/mL) | 329 (≈ 128 µg/mL) | 329 (≈ 128 µg/mL) | 1320 (≈ 513 µg/mL) | 329 (≈ 128 µg/mL)
OC(Cn1cncn1)(Cn1cncn1)c1ccc(F)cc1F [FLUCONAZOLE] | – | – | – | – | – | 3 (≈ 0.919 µg/mL) | 13 (≈ 3.98 µg/mL) | 6 (≈ 1.84 µg/mL) | 25 (≈ 7.66 µg/mL) | 802 (≈ 246 µg/mL) | – | – | – | – | – | –
